These results are taken from patent US8859580B2 (Boehringer Ingelheim International GmbH, priority 2007, dated 2014).

In this assay the target is T1, 11β-HSD1 (Homo sapiens, UniProt P28845).
T1 construct: detecting cortisol generated from cortisterone by human liver microsomes; from tissue; host or cells: human liver microsomes
The assay is described as follows: In vitro inhibition of 11β-HSD1, HTRF detection of cortisol generated from cortisone by human liver microsomes. Type of assay: biochemical. The note with it: 11β-HSD IC50 (nM), 1 hour at 37° C., pH 6.0, NADPH 200 μM, cortisone 80 nM, inhibition relative to carbenoxolone signal. In short, it runs like this: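 Inhibition expressed against the carbenoxolone signal and fitted to IC50 curves. Readout: HTRF competition between microsomal cortisol and XL665-labelled cortisol for Eu-cryptate anti-cortisol antibody (typically 2 h), with emission ratio 665/615 calibrated to cortisol concentration.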
(In general: TR-FRET usually uses a lanthanide donor and a delayed reading to cut background.)

A word on the IC50: it is the concentration needed to halve the response being measured. Read a high IC50 as lower potency.

Each structure is given as a SMILES string.

T1 sequence (P28845 whole entry): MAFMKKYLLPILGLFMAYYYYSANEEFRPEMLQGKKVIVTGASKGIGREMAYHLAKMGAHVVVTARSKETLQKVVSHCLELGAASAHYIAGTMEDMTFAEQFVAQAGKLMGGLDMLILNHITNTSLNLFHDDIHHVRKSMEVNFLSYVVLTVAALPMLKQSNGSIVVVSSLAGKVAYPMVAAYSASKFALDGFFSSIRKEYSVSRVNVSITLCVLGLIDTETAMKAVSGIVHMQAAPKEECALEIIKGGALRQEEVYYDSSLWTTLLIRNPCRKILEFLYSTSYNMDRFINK

In turn, `CC1(C)[C@H]2Cc3ccccc3[C@]1(C)CCN2C(=O)c1ccc([N+](=O)[O-])cc1` [Example 280, (4-Nitro-phenyl)-[(2R,6S)-6,11,11-trimethyl-1,2,5,6-tetrahydro-4H-2,6-methano-benzo[d]azocin-3-yl]-methanone] had an IC50 of 1260 nM.

Regarding `CC1(C)[C@H]2Cc3ccccc3[C@]1(C)CCN2C(=O)c1c(F)c(F)c(N)c(F)c1F` [Example 281, (4-Amino-2,3,5,6-tetrafluoro-phenyl)-[(2R,6S)-6,11,11-trimethyl-1,2,5,6-tetrahydro-4H-2,6-methano-benzo[d]azocin-3-yl]-methanone], half-maximal inhibition (IC50) was put at 918 nM.

With `CC1(C)[C@H]2Cc3ccccc3[C@]1(C)CCN2C(=O)c1ccc2ccccc2c1` [Example 282, Naphthalen-2-yl-[(2R,6S)-6,11,11-trimethyl-1,2,5,6-tetrahydro-4H-2,6-methano-benzo[d]azocin-3-yl]-methanone], the concentration for half-maximal inhibition (IC50) was 409 nM. With `CC1(C)[C@H]2Cc3ccccc3[C@]1(C)CCN2C(=O)c1cc(Cl)c(N)c(Cl)c1` [Example 283, (4-Amino-3,5-dichloro-phenyl)-[(2R,6S)-6,11,11-trimethyl-1,2,5,6-tetrahydro-4H-2,6-methano-benzo[d]azocin-3-yl]-methanone] the figure was 55 nM. In the case of `CC1(C)[C@H]2Cc3ccccc3[C@]1(C)CCN2C(=O)c1cccc2ccccc12` [Example 284, Naphthalen-1-yl-[(2R,6S)-6,11,11-trimethyl-1,2,5,6-tetrahydro-4H-2,6-methano-benzo[d]azocin-3-yl]-methanone], the IC50 came to 666 nM. The result for `CC1(C)[C@H]2Cc3ccccc3[C@]1(C)CCN2C(=O)c1ccc2cn[nH]c2c1` [Example 285, (1H-Indazol-6-yl)-[(2R,6S)-6,11,11-trimethyl-1,2,5,6-tetrahydro-4H-2,6-methano-benzo[d]azocin-3-yl]-methanone] reads 150 nM.

As for `CC1(C)[C@H]2Cc3ccccc3[C@]1(C)CCN2C(=O)c1ccc(N)cc1` [Example 286, (4-Amino-phenyl)-[(2R,6S)-6,11,11-trimethyl-1,2,5,6-tetrahydro-4H-2,6-methano-benzo[d]azocin-3-yl]-methanone], the half-maximal inhibitory concentration (IC50) is 47 nM. With `CC1(C)[C@H]2Cc3ccccc3[C@]1(C)CCN2C(=O)c1ccc2c(c1)C(=O)CC2` [Example 288, 6-[(2R,6S)-6,11,11-Trimethyl-1,2,5,6-tetrahydro-4H-2,6-methano-benzo[d]azocine-3-carbonyl)-indan-1-one] the figure was 901 nM; with `C[C@@H]1[C@H]2Cc3ccc(-c4ccc(=O)n(C)c4)cc3[C@]1(C)CCN2C(=O)c1ccc2nc[nH]c2c1` [Example 289, 5-[(2R,6R,11S)-3-(3H-Benzoimidazole-5-carbonyl)-6,11-dimethyl-1,2,3,4,5,6-hexahydro-2,6-methano-benzo[d]azocin-8-yl]-1-methyl-1H-pyridin-2-one], 121 nM. `C[C@@H]1[C@H]2Cc3ccc(-c4ccc(=O)n(C)n4)cc3[C@]1(C)CCN2C(=O)c1ccc2nc[nH]c2c1` [Example 290, 6-[(2R,6R,11S)-3-(3H-Benzoimidazole-5-carbonyl)-6,11-dimethyl-1,2,3,4,5,6-hexahydro-2,6-methano-benzo[d]azocin-8-yl]-2-methyl-2H-pyridazin-3-one]: the IC50 stood at 72 nM. With `CC1(C)[C@H]2Cc3ccccc3[C@]1(C)CCN2C(=O)c1ccc2c(c1)C(O)CC2` (stereo partly drawn) [Example 291, (3-Hydroxy-indan-5-yl)-[(2R,6S)-6,11,11-trimethyl-1,2,5,6-tetrahydro-4H-2,6-methano-benzo[d]azocin-3-yl]-methanone] the figure was 183 nM; with `CC1(O)CCc2ccc(C(=O)N3CC[C@@]4(C)c5ccccc5C[C@@H]3C4(C)C)cc21` (stereo partly drawn) [Example 292, (3-Hydroxy-3-methyl-indan-5-yl)-[(2R,6S)-6,11,11-trimethyl-1,2,5,6-tetrahydro-4H-2,6-methano-benzo[d]azocin-3-yl]-methanone], 502 nM.
